Data on 4 compounds can be found in patent publication US6512099B2, “Roselipin derivative” (Kitasato Institute, priority 2001, dated 2003).

Assay [1] concerns Acholeplasma laidlawii KB174. Kind of assay: Paper disk growth inhibition circle. In kind it is cell-based. As to conditions: 10 μg on 6 mm filter paper.
Assay [2] concerns Raji cell derived from human Burkitt lymphoma. Kind of assay: Inhibitory activity against production of triacylglycerol in human-derived cell (Raji). The format is cell-based. The settings on record: 0.5 h, [1-14C]oleic acid, 37° C., 30 minutes, read-out: concentration which inhibited 50% of production of triacylglycerol. As to the method: An influence on production of triacylglycerol was examined in accordance with a method by TOMODA et al. (Journal of Biological Chemistry, vol. 266, pp. 4,212 to 4,219, 1991) by use of a human-derived cell (Raji cell derived from human Burkitt lymphoma). 200 μl of 2.7×10^5 cells/ml of Raji cell solution [1-^14C]oleic acid (0.02 μCi) was allowed to react at 37° C. for 30 minutes. After all lipids were extracted from a mixed solution of chloroform and methanol (mixing ratio=1:2), a measurement was carried out by use of the same method as used for the inhibitory activity against diacylglycerol acyltransferase derived from a rat. The concentrations of the roselipin R-3A, R-3B, R-4 and R-5 compounds which inhibited 50% of production of triacylglycerol were measured.

In assay [3] the test system is Bacillus subtilis KB27. Kind of assay: Paper disk growth inhibition circle. As to conditions: Bacillus subtilis KB27 (synthetic medium); 10 μg on 6 mm filter paper. The format is cell-based.
Assay [4] has as its target diacylglycerol acyltransferase. Kind of assay: Inhibitory activity against diacylglycerol acyltransferase derived from rat (rat liver microsome fraction). In kind it is biochemical. The settings on record: 23° C., 15 minutes, read-out: concentration which inhibited 50% of the diacylglycerol acyltransferase. The protocol: A diacylglycerol acyltransferase activity was measured by means of a partially modified version of a method of Mayorek and Bar-Tana (Journal of Biological Chemistry, vol. 260, pp. […], 1985). That is, using a microsome fraction prepared from a rat liver as an enzyme source, 0.75 mM 1,2-dioleoyl-sn-glycerol and 30 μM [1-^14C]palmitoyl-CoA (0.02 μCi) were added to 175 mM tris-hydrochloric acid (HCl)(pH: 8.0) buffer containing 8 mM MgCl2, 1 mg/ml bovine serum albumin and 2.5 mM diisopropyl fluorophosphonate to a total volume of 200 μL. The mixture was allowed to react at 23° C. for 15 minutes. […] Thereafter, the radioactivity of a triacylglycerol fraction was measured by an RI radio scanner (manufactured by AMBIS CO., LTD.) to measure the diacylglycerol acyltransferase activity.
(Liver microsomes are vesicles of endoplasmic reticulum, rich in cytochrome P450 enzymes.)

Assay [5] relates to Mucor racemosus KF223. In words: Paper disk growth inhibition circle. The format is cell-based. The settings on record: 10 μg on 6 mm filter paper.
The test system of assay [6] is Pyricularia oryzae KB180. The format is cell-based. The settings on record: 10 μg on 6 mm filter paper.

`CCC(C)CC(C)CC(C)C(O)C(C)/C=C(\C)C(O)C(C)/C=C(\C)C(O)C(C)/C=C(\C)C(=O)OC[C@@H](O)[C@@H](O)[C@H](O)CO` (stereo partly shown) [roselipin R-3A]: the figures for the “Diameter of Inhibition Circle” value in assay [1], in assay [3] and in assay [5] were 10 mm, 10 mm and 14 mm, respectively. Also, the IC50 in assay [2] amounted to 11 µM; in assay [4] it was 60 µM.

`CCC(C)CC(C)CC(C)C(O)C(C)/C=C(\C)C(O)C(C)/C=C(\C)C(O)C(C)/C=C(\C)C(=O)OC[C@@H](O)[C@H](O)[C@H](O)CO` (stereo partly shown) [roselipin R-3B]: the IC50 worked out at 10 µM in assay [2] and 33 µM in assay [4].

For the compound `CCC(C)CC(C)CC(C)C(O[C@@H]1OC(CO)[C@@H](O)C(O)C1O)C(C)/C=C(\C)C(O)C(C)/C=C(\C)C(O)C(C)/C=C(\C)C(=O)OC` (stereo partly shown) [roselipin R-4], the IC50 in assay [2] is 200 µM; in assay [4] it was above 762 µM. The “Diameter of Inhibition Circle” value in assay [6] was determined as 16 mm; in assay [5], 12 mm.

For `CCC(C)CC(C)CC(C)C(O)C(C)/C=C(\C)C(O)C(C)/C=C(\C)C(OC)C(C)/C=C(\C)C(=O)OC` (stereo not shown) [roselipin R-5], the values for the IC50 in assay [2] and in assay [4] were 250 µM and above 984 µM, respectively.
